Values after ≈ are worked out from the molar mass of the structure shown. Values joined by “and” are separate entries in the source; they are usually repeats but may differ in a detail not shown here. Equal entries are not always repeated. Where two headings read alike, the source gives them in different places.
Legend:
[1] = tested on: Mycoplasma hyopneumoniae; test: MIC, broth-dilution microtiter test, Mycoplasma hyopneumoniae; type: cell-based; conditions: Mycoplasma hyopneumoniae, broth-dilution microtiter
Description: (§1) The MIC's in Table X were obtained using conventional broth-dilution microtiter tests.

[2] = tested on: Staphylococcus epidermidis EPI1; test: MIC, standard agar-dilution assay, Staphylococcus epidermidis EPI1; type: cell-based; conditions: Staphylococcus epidermidis EPI1, agar dilution
[3] = tested on: Staphylococcus aureus S13E; test: MIC, standard agar-dilution assay, Staphylococcus aureus S13E; type: cell-based
[4] = tested on: Staphylococcus aureus X1.1; test: MIC, standard agar-dilution assay, Staphylococcus aureus X1.1; type: cell-based
[5] = tested on: Pasteurella hemolytica 22C; test: MIC, broth-dilution microtiter test, Pasteurella hemolytica 22C; type: cell-based; conditions: Pasteurella hemolytica 22C, broth-dilution microtiter
Description: as §1

[6] = tested on: Staphylococcus aureus V41; test: MIC, standard agar-dilution assay, Staphylococcus aureus V41; type: cell-based; conditions: Staphylococcus aureus V41, penicillin-resistant strain, agar dilution
[7] = tested on: Staphylococcus aureus; test: MIC, broth-dilution microtiter test, Staphylococcus aureus; type: cell-based; conditions: broth-dilution microtiter
Description: as §1

[8] = tested on: Streptococcus pyogenes C203; test: MIC, standard agar-dilution assay, Streptococcus pyogenes C203; type: cell-based
[9] = tested on: Streptococcus Group D X66; test: MIC, standard agar-dilution assay, Streptococcus Group D X66; type: cell-based; conditions: Streptococcus Group D X66, agar dilution
[10] = tested on: Mycoplasma hyorhinis; test: MIC, broth-dilution microtiter test, Mycoplasma hyorhinis; type: cell-based
Description: as §1

[11] = tested on: Staphylococcus aureus X400; test: MIC, standard agar-dilution assay, Staphylococcus aureus X400; type: cell-based; conditions: Staphylococcus aureus X400, methicillin-resistant strain, agar dilution
[12] = tested on: Pasteurella multocida; test: Subcutaneous treatment of Pasteurella multocida-infected chicks; type: in vivo, one-day-old chicks
Experimental: (§2) Many of the C-20 modified derivatives of this invention have also shown in vivo antibacterial activity against infections induced by gram-negative bacteria. Tables XII and XIII summarize the results of tests in which illustrative compounds were evaluated against Pasteurella infection in one-day-old chicks. The compounds were administered parenterally or orally after challenge of the chicks with Pasteurella multocida (0.1 ml of a 10^-4 dilution of a twenty-hour tryptose broth culture of an avian P. multocida given subcutaneously). In these tests, unless indicated otherwise, all non-medicated infected chicks died within 24 hours of Pasteurella challenge. In the tests summarized in Table XII the compounds were administered by subcutaneous injection at a dosage of 30 mg/kg, 1 and 4 hours post-challenge of the chicks with P. multocida. In the test summarized in Table XIII the compounds were administered by gavage at 1 and 5 hours post-challenge of the chicks with P. multocida.

[13] = tested on: Haemophilus influenzae Holt; test: MIC, standard agar-dilution assay, Haemophilus influenzae Holt; type: cell-based
[14] = tested on: Haemophilus influenzae R252; test: MIC, standard agar-dilution assay, Haemophilus influenzae R252; type: cell-based; conditions: Haemophilus influenzae R252, ampicillin-resistant strain
[15] = tested on: Mycoplasma gallisepticum; test: MIC, broth-dilution microtiter test, Mycoplasma gallisepticum; type: cell-based; conditions: Mycoplasma gallisepticum, broth-dilution microtiter
Description: as §1

[16] = tested on: Pasteurella multocida 17E; test: MIC, broth-dilution microtiter test, Pasteurella multocida 17E; type: cell-based; conditions: Pasteurella multocida 17E, bovine isolate, broth-dilution microtiter
Description: as §1

[17] = tested on: Streptococcus Group 9960; test: MIC, standard agar-dilution assay, Streptococcus Group 9960; type: cell-based; conditions: Streptococcus Group 9960, agar dilution
[18] = tested on: Pasteurella multocida 60A; test: MIC, broth-dilution microtiter test, Pasteurella multocida 60A; type: cell-based; conditions: Pasteurella multocida 60A, avian isolate, broth-dilution microtiter
Description: as §1

[19] = tested on: Pasteurella multocida; test: Oral (gavage) treatment of Pasteurella multocida-infected chicks; type: in vivo, one-day-old chicks
Experimental: as §2

[20] = tested on: Streptococcus pneumoniae Park I; test: microbe, parasite or virus in culture; type: cell-based; conditions: Streptococcus pneumoniae Park I, agar dilution
[21] = tested on: Streptococcus bovis 80; test: MIC, broth-dilution microtiter test, Streptococcus bovis 80; type: cell-based
Description: as §1

[22] = tested on: Streptococcus pyogenes C203; test: In vivo protection of mice experimentally infected with S. pyogenes C203; conditions: mice, doses given 1 and 4 hours post-infection; for ED50: Streptococcus pyogenes
Experimental: The C-20 modified derivatives of this invention have shown in vivo antimicrobial activity against experimentally-induced infections in laboratory animals. When two doses of test compound were administered to mice experimentally infected with S. pyogenes C203, the activity observed was measured as an ED50 value [effective dose in mg/kg to protect 50% of the test animals: see Warren Wick, et al., J. Bacteriol. 81, 233-235 (1961)].

[23] = tested on: Staphylococcus epidermidis EPI2; test: MIC, standard agar-dilution assay, Staphylococcus epidermidis EPI2; type: cell-based; conditions: Staphylococcus epidermidis EPI2; agar dilution
[24] = tested on: Mycoplasma synoviae; test: MIC, broth-dilution microtiter test, Mycoplasma synoviae; type: cell-based; conditions: Mycoplasma synoviae; broth-dilution microtiter
Description: as §1

[25] = 30 mg/kg × 2, 1 and 4 hours post-challenge
[26] = Staphylococcus aureus S13E, agar dilution
[27] = Staphylococcus aureus X1.1, agar dilution
[28] = Streptococcus pyogenes C203, agar dilution
[29] = Mycoplasma hyorhinis, broth-dilution microtiter
[30] = Haemophilus influenzae Holt, ampicillin-sensitive strain, agar dilution
[31] = Streptococcus bovis 80, broth-dilution microtiter

CCC1OC(=O)CC(O)C(C)C(OC2OC(C)C(O)C(N(C)C)C2O)C(CCCl)CC(C)C(=O)C=CC(C)=CC1COC1OC(C)C(O)C(OC)C1OC (centres unmarked) [Compound 21, 20-DH-DO-20-Chlorodesmycosin]
MIC ([1]; Mesomycoplasma hyopneumoniae, read-out: MIC): 12.5 µg/mL (≈ 15.8 µM)
MIC ([2]; read-out: MIC): 0.12 µg/mL (≈ 0.151 µM)
MIC ([3]; Staphylococcus aureus, S13E): 0.12 µg/mL (≈ 0.151 µM)
MIC ([4]; Staphylococcus aureus, X1.1): 0.25 µg/mL (≈ 0.315 µM)
MIC ([5]; read-out: MIC): 12.5 µg/mL (≈ 15.8 µM)
MIC ([6]; read-out: MIC): 0.12 µg/mL (≈ 0.151 µM)
MIC ([7]; read-out: MIC): 0.78 µg/mL (≈ 0.984 µM)
MIC ([8]; Streptococcus pyogenes, C203): 0.25 µg/mL (≈ 0.315 µM)
MIC ([9]; read-out: MIC): 8 µg/mL (≈ 10.1 µM)
MIC ([10]; Mycoplasma): 50 µg/mL (≈ 63.1 µM)
MIC ([11]; read-out: MIC): 0.5 µg/mL (≈ 0.631 µM)
Number of Deaths/Number Treated [12, 25]: 9/10
Number of Deaths/Number Treated ([12]; 30 mg/kg × 2, 8/10 infected nonmedicated chicks died in this test): 7/10
MIC ([13]; Haemophilus influenzae): 16 µg/mL (≈ 20.2 µM)
MIC ([14]; read-out: MIC): 16 µg/mL (≈ 20.2 µM)
MIC ([15]; Mycoplasmoides gallisepticum, read-out: MIC): 0.39 µg/mL (≈ 0.492 µM)
MIC ([16]; read-out: MIC): 12.5 µg/mL (≈ 15.8 µM)
MIC ([17]; GROUP9960, read-out: MIC): 8 µg/mL (≈ 10.1 µM)
MIC ([18]; read-out: MIC): 6.25 µg/mL (≈ 7.89 µM)
Number of Deaths/Number tested ([19]; 1.0 g/gal equivalent): 3/9
Number of Deaths/Number tested ([19]; 2.0 g/gal equivalent): 0/9 and 0/10
Number of Deaths/Number tested ([19]; 2.0 g/gal equivalent, 13/20 infected nonmedicated chicks died in this test): 2/10
MIC ([20]; read-out: MIC): 1 µg/mL (≈ 1.26 µM)
MIC ([21]; Streptococcus equinus, 80): 3.12 µg/mL (≈ 3.94 µM)
ED50 ([22]; C203, sc, subcutaneous, read-out: ED50, Subcutaneous): 0.7 mg/kg
ED50 ([22]; C203, oral, read-out: ED50, Oral): 6 mg/kg

CCC1OC(=O)CC(O)C(C)C(OC2OC(C)C(O)C(N(C)C)C2O)C(CCS(=O)(=O)c2ccc(C)cc2)CC(C)C(=O)C=CC(C)=CC1COC1OC(C)C(O)C(OC)C1OC (centres unmarked) [Compound 46, 20-DH-DO-20-(p-Toluenesulfonyl)desmycosin]
MIC [1]: 12.5 µg/mL (≈ 13.7 µM)
MIC [2]: 0.25 µg/mL (≈ 0.274 µM)
MIC [3, 26]: 0.25 µg/mL (≈ 0.274 µM)
MIC [23]: 0.12 µg/mL (≈ 0.132 µM)
MIC [4, 27]: 0.25 µg/mL (≈ 0.274 µM)
MIC [5]: 12.5 µg/mL (≈ 13.7 µM)
MIC [6]: 0.25 µg/mL (≈ 0.274 µM)
MIC [7]: 0.39 µg/mL (≈ 0.428 µM)
MIC [8, 28]: 1 µg/mL (≈ 1.1 µM)
MIC [9]: 8 µg/mL (≈ 8.77 µM)
MIC [10, 29]: 50 µg/mL (≈ 54.8 µM)
MIC [11]: 0.25 µg/mL (≈ 0.274 µM)
Number of Deaths/Number Treated [12, 25]: 0/10
MIC [13, 30]: 4 µg/mL (≈ 4.39 µM)
MIC ([14]; agar dilution): 8 µg/mL (≈ 8.77 µM)
MIC [15]: 0.19 µg/mL (≈ 0.208 µM)
MIC [16]: 12.5 µg/mL (≈ 13.7 µM)
MIC [17]: 8 µg/mL (≈ 8.77 µM)
MIC [18]: 12.5 µg/mL (≈ 13.7 µM)
MIC [20]: 1 µg/mL (≈ 1.1 µM)
MIC [21, 31]: 6.25 µg/mL (≈ 6.85 µM)
MIC [24]: 0.78 µg/mL (≈ 0.855 µM)
ED50, Oral ([22]; oral): > 50 mg/kg × 2
ED50, Subcutaneous ([22]; subcutaneous): 4.2 mg/kg × 2

CCOC(=O)NN(CCC1CC(C)C(=O)C=CC(C)=CC(COC2OC(C)C(O)C(OC)C2OC)C(CC)OC(=O)CC(O)C(C)C1OC1OC(C)C(O)C(N(C)C)C1O)C(=O)OCC (centres unmarked) [Compound 45, 20-DH-DO-20-[N-(Ethoxycarbonyl)-N-(ethoxycarbonylamino)]aminodesmycosin]
MIC [1]: 6.25 µg/mL (≈ 6.71 µM)
MIC [2]: 0.5 µg/mL (≈ 0.536 µM)
MIC [3, 26]: 0.5 µg/mL (≈ 0.536 µM)
MIC [23]: 0.25 µg/mL (≈ 0.268 µM)
MIC [4, 27]: 0.5 µg/mL (≈ 0.536 µM)
MIC [5]: 50 µg/mL (≈ 53.6 µM)
MIC [6]: 0.5 µg/mL (≈ 0.536 µM)
MIC [7]: 1.56 µg/mL (≈ 1.67 µM)
MIC [8, 28]: 2 µg/mL (≈ 2.15 µM)
MIC [9]: 16 µg/mL (≈ 17.2 µM)
MIC [10, 29]: -- (Not active at 50 mcg/ml, the highest level tested)
MIC [11]: 1 µg/mL (≈ 1.07 µM)
Number of Deaths/Number Treated [12, 25]: 9/10
MIC [13, 30]: 32 µg/mL (≈ 34.3 µM)
MIC ([14]; agar dilution): 32 µg/mL (≈ 34.3 µM)
MIC [15]: 0.39 µg/mL (≈ 0.418 µM)
MIC [16]: 25 µg/mL (≈ 26.8 µM)
MIC [17]: 8 µg/mL (≈ 8.58 µM)
MIC [18]: 25 µg/mL (≈ 26.8 µM)
MIC [20]: 0.5 µg/mL (≈ 0.536 µM)
MIC [21, 31]: 12.5 µg/mL (≈ 13.4 µM)
MIC [24]: 6.25 µg/mL (≈ 6.71 µM)
ED50, Oral ([22]; oral): > 50 mg/kg × 2
ED50, Subcutaneous ([22]; subcutaneous): 2.1 mg/kg × 2
